ChEMBL document CHEMBL5653615 (J Biol Chem, 2013)

Columns and labels:
[1] = target: Cyclin-dependent kinase 5/CDK5 activator 1 (Homo sapiens) (UniProt Q00535+Q15078); experiment: Inhibition of human CDK5/p25 at 18.6 nM by HotSpot assay relative to control; type: protein-complex assay
[2] = target: T1, Serine/threonine-protein kinase TBK1 (Homo sapiens) (UniProt Q9UHD2); experiment: Inhibition of human TBK1 at 18.6 nM by HotSpot assay relative to control
T1 sequence (whole entry): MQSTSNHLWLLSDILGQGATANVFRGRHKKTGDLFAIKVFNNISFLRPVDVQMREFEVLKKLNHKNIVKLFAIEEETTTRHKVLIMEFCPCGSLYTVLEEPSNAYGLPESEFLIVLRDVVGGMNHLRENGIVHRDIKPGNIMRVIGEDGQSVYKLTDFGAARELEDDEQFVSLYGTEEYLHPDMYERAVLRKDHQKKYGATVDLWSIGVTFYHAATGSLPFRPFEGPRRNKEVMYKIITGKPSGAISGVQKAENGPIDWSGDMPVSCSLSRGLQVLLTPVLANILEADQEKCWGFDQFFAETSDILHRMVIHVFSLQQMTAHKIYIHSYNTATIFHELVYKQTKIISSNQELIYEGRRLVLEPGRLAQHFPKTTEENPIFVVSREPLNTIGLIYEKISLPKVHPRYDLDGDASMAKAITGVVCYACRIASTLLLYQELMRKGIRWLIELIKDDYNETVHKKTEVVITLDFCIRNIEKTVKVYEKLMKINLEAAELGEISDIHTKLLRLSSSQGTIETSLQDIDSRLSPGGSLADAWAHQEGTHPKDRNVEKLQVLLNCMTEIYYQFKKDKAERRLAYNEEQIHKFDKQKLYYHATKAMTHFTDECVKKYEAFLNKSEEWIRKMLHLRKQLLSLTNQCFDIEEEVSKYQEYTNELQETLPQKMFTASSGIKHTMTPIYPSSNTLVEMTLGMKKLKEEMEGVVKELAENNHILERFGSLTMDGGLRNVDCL

[3] = target: T2, Serine/threonine-protein kinase D1 (Homo sapiens) (UniProt Q15139); experiment: Inhibition of human PRKD1 at 18.6 nM by HotSpot assay relative to control
T2 sequence (whole entry): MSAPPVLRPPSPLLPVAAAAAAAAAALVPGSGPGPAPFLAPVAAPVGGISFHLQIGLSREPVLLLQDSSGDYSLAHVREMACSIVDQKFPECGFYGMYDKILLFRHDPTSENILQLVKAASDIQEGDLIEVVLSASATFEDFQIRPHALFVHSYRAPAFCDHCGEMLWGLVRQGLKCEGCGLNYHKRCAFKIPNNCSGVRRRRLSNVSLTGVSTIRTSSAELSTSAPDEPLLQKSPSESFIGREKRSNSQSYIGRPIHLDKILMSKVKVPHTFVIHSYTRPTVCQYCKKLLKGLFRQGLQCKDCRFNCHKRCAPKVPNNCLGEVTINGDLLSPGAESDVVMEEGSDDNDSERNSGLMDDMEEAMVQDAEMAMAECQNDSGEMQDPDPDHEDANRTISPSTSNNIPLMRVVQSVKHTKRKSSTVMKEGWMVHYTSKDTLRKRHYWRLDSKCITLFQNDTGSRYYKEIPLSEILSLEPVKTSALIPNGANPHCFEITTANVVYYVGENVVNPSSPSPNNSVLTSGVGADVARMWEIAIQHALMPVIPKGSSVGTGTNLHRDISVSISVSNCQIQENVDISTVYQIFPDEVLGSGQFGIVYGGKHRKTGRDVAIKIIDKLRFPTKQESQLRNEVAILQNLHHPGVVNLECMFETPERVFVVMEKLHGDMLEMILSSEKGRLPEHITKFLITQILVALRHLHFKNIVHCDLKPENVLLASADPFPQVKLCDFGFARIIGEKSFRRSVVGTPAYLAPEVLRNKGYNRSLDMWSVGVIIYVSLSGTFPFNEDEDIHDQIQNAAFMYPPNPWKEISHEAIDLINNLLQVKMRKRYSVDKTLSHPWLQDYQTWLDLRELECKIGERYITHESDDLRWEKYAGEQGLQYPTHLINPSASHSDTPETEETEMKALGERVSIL

[4] = target: Serine/threonine-protein kinase 24 (Homo sapiens) (UniProt Q9Y6E0); experiment: Inhibition of human STK24 at 1.82 nM by HotSpot assay relative to control
Serine/threonine-protein kinase 24 (Homo sapiens), sequence (Q9Y6E0 whole entry, looked up): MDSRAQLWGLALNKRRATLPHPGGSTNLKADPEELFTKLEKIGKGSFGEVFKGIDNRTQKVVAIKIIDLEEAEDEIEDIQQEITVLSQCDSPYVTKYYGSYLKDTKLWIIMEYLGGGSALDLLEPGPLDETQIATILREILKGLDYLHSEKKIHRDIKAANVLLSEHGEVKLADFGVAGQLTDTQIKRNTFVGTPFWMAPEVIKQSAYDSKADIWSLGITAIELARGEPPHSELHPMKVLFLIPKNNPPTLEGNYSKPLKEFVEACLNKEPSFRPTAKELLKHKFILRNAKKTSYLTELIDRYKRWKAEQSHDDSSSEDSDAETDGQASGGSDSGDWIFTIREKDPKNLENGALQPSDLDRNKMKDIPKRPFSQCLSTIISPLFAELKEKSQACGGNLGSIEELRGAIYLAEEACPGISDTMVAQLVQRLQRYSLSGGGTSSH

[5] = target: T3, Mitogen-activated protein kinase kinase kinase 2 (Homo sapiens) (UniProt Q9Y2U5); experiment: Inhibition of human MEKK2 at 1.82 nM by HotSpot assay relative to control
T3 sequence (whole entry): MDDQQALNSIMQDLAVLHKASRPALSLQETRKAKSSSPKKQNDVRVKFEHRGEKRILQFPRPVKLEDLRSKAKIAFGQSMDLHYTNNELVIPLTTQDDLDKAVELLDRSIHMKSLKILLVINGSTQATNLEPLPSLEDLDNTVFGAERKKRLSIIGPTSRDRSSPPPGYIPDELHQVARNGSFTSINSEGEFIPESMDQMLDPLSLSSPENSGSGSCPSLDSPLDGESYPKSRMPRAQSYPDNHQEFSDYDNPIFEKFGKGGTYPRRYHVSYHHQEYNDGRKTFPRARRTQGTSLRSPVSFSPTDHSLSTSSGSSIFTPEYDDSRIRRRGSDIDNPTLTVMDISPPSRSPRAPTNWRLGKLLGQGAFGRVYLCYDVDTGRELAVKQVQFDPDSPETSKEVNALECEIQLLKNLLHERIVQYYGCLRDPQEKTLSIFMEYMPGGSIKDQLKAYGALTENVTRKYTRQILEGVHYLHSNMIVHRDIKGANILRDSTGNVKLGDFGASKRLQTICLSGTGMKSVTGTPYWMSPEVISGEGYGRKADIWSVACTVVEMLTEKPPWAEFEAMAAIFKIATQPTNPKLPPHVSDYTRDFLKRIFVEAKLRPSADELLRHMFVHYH

Cyclin-dependent kinase 5/CDK5 activator 1 (Homo sapiens), sequence (Q00535 whole entry): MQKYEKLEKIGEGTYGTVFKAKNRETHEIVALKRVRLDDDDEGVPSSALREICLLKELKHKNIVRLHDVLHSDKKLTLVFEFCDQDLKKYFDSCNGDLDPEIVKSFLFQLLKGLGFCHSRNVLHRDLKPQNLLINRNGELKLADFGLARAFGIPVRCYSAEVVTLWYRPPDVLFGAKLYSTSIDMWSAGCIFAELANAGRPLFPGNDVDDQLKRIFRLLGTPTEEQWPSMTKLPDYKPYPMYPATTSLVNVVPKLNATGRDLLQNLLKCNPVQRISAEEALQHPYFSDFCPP
Cyclin-dependent kinase 5/CDK5 activator 1 (Homo sapiens), sequence (Q15078 99-307 partner limits assumed): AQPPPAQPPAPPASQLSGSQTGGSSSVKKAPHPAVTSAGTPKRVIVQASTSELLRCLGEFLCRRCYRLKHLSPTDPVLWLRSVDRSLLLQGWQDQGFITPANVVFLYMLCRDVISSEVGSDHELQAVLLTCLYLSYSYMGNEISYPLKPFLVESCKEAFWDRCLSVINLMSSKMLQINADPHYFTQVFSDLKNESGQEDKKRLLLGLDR

Row | inhibition [1] | inhibition [2] | inhibition [3] | inhibition [4] | inhibition [5] | Structure (SMILES)
1 | 4.12% | 5.59% | -2.06% | – | – | C[C@]1(O)C[C@@H](c2nc(-c3ccc4ccc(-c5ccccc5)nc4c3)c3c(N)nccn32)C1
2 | – | – | – | 2.42% | -7.18% | C[C@@]1(C(=O)Nc2ccc(F)nc2)CCCN1c1nc(Nc2cc(C3CC3)n[nH]2)c2cccn2n1
